# pIC50: −log10 of the molar value.
# Assays:
# [1] = target: T1, FGFR1 (fibroblast growth factor receptor-1) (Homo sapiens, UniProt P11362); assay: KinaseProfiler assay, FGFR1; assay type: biochemical; conditions: read-out: KAR value (kinase activity remaining)
# T1 construct: purchased Merck Millipore (KinaseProfiler service)
# Excerpt: (§1) The kinase activity remaining (KAR) value is […] related to kinase activity. […]
# [2] = target: T2, EGFR (epidermal growth factor receptor) (Homo sapiens, UniProt P00533); assay: KinaseProfiler assay, EGFR; assay type: biochemical; conditions: read-out: KAR value (kinase activity remaining)
# T2 construct: purchased Merck Millipore (KinaseProfiler service)
# [3] = system: survivin; assay: Western blot of survivin protein expression in A549 cells; conditions: 0 to 40 μM, 24 hours
# Procedure: The protease inhibitors including 1 μg/ml aprotinin, 0.5 μg/ml leupeptin, and 100 μg/ml 4-(2-aminoethyl)benzenesulfonyl fluoride were added to the cell suspensions. The lysates were vibrated for 30 minutes at 4° C. and centrifuged at 10,000 rpm for 10 minutes. The protein concentrations were determined by the BCA protein assay kit (Pierce, Rockford, Ill.). […] The membranes were blocked overnight at 4° C. using blocking buffer (5% non-fat dried milk in solution containing 50 mM Tris/HCl (pH 8.0), 2 mM CaCl2, 80 mM NaCl, 0.05% Tween 20 and 0.02% sodium azide). The membranes were sequentially hybridized with primary antibody and followed with a horseradish peroxidase-conjugated secondary antibody. The protein bands were visualized on the X-ray film using the enhanced chemiluminescence detection system (PerkinElmer Life and Analytical Sciences, Boston, Mass.). […] To verify equal protein loading and transfer, actin was used as the protein loading control. The gel digitizing software, Un-Scan-It gel (Ver. 5.1, Silk Scientific, Inc., Orem, Utah), was used to analyze the intensity of protein bands on X-ray film.
# A549 cells were plated at a density of 1×10^6 cells per 60-mm Petri dish in complete medium for 16 to 20 hours. […] To verify equal protein loading and transfer, actin was used as the protein loading control.
# [4] = target: T3, LCK (lymphocyte kinase) (Homo sapiens, UniProt P06239); assay: KinaseProfiler assay, LCK; assay type: biochemical; conditions: read-out: KAR value (kinase activity remaining)
# T3 construct: purchased Merck Millipore (KinaseProfiler service)
# T3 sequence (P06239 whole entry): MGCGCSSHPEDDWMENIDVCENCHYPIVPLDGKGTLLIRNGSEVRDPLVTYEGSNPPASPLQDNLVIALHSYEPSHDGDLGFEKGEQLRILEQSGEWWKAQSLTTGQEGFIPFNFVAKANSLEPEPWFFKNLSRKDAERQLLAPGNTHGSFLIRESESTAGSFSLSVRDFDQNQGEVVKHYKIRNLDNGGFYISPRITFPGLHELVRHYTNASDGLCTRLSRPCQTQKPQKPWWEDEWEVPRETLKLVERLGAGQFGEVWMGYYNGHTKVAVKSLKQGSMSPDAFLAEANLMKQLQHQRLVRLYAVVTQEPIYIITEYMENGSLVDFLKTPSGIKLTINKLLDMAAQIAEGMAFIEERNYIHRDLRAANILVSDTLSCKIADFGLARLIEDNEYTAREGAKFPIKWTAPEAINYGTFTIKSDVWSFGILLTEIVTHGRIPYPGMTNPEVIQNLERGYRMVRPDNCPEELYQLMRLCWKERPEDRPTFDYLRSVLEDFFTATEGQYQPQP
# [5] = target: T4, STK10 (lymphocyte-oriented kinase) (Homo sapiens, UniProt O94804); assay: KinaseProfiler assay, STK10; assay type: biochemical; conditions: read-out: KAR value (kinase activity remaining)
# T4 construct: purchased Merck Millipore (KinaseProfiler service)
# T4 sequence (O94804 whole entry): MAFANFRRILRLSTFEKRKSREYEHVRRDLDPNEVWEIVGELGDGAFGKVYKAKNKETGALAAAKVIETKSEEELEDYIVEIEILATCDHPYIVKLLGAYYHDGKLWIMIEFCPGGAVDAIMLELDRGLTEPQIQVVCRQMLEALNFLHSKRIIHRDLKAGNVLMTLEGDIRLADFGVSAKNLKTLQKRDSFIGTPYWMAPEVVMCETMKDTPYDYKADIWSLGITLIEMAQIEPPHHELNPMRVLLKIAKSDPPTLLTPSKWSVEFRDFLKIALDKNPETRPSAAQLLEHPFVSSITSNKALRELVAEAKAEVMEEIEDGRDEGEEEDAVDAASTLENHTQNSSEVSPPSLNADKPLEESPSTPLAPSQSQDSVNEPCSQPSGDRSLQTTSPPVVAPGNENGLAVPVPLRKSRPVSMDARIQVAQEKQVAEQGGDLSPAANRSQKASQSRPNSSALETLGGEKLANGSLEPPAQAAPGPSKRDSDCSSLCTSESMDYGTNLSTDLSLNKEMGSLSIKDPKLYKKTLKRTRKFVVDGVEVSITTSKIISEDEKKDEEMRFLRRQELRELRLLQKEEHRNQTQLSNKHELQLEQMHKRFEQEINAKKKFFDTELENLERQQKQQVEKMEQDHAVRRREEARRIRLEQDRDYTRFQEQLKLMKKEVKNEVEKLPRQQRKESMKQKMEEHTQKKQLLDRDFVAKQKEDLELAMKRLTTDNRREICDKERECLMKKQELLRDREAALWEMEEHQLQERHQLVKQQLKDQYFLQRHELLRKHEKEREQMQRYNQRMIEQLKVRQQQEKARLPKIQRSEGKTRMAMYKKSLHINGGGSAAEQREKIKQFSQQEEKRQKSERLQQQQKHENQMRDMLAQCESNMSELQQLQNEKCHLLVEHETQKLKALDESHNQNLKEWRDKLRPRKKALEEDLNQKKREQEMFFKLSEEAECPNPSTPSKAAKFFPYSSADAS
# Excerpt: as §1
# [6] = target: T5, CSNK2A1 (casein kinase-2) (Homo sapiens, UniProt P68400); assay: KinaseProfiler assay, CSNK2A1; assay type: biochemical; conditions: CSNK2A1; 10 μM; read-out: KAR value (kinase activity remaining)
# T5 construct: purchased Merck Millipore (KinaseProfiler service)
# T5 sequence (P68400 whole entry): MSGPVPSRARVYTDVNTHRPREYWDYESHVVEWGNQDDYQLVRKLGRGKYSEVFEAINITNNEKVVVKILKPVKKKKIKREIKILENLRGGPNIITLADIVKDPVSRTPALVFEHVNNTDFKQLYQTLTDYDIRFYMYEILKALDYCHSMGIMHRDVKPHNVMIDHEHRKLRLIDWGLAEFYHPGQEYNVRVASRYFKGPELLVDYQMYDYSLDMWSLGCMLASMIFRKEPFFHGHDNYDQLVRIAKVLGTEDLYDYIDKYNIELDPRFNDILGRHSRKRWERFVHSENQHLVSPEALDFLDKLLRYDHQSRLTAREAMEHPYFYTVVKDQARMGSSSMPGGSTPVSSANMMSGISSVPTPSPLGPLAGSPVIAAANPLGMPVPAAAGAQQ
# Excerpt: as §1
# [7] = target: T6, RET (product of ret proto-oncogene) (Homo sapiens, UniProt P07949); assay: KinaseProfiler assay, RET; assay type: biochemical; conditions: RET; 10 μM; read-out: KAR value (kinase activity remaining)
# T6 construct: purchased Merck Millipore (KinaseProfiler service)
# T6 sequence (P07949 29-1114): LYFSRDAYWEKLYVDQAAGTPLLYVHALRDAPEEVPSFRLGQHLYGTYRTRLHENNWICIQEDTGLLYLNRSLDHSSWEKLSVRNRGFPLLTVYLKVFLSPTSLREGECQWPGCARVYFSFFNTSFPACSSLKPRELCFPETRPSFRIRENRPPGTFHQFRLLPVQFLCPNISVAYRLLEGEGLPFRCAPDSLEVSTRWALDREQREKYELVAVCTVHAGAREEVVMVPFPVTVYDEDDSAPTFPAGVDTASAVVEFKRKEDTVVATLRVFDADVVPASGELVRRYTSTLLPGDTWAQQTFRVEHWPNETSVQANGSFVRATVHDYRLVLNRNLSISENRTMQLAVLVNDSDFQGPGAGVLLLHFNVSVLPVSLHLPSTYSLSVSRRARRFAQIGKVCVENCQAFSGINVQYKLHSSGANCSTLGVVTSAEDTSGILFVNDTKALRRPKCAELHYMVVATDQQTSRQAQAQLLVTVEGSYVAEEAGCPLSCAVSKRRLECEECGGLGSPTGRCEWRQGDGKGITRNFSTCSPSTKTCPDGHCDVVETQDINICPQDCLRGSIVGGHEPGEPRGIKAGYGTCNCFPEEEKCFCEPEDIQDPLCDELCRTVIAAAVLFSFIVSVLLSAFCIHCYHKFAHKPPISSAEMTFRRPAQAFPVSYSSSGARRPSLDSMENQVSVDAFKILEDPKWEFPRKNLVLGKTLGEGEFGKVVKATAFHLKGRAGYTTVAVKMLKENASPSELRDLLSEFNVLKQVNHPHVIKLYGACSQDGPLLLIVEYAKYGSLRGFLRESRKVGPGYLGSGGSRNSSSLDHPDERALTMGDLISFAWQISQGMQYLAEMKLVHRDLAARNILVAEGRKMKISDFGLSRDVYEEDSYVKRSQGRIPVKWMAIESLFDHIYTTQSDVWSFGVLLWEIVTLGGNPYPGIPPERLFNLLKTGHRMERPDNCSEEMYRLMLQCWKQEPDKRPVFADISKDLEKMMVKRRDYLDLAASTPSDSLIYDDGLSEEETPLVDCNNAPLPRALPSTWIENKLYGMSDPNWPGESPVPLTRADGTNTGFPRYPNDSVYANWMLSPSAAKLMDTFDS
# Excerpt: as §1
# [8] = system: A549 cells; assay: Survivin overexpression (pCT-GFP-sur8 transfection) and MTT cell viability; assay type: cell-based, human; conditions: A549 cells transfected with pCT-GFP-sur8 vs pCT-GFP2
# Procedure: To further determine the effect that Analogue-18 inhibits surviving so as to induce apoptosis. The pCT-GFP2 and pCT-GFP-sur8 were employed for transfection using Lipofectamine™ 2000 (Invitrogen) according to the manufacturer's instructions. The pCT-GFP-sur8 overexpressed surviving, and the pCT-GFP2 only overexpressed green fluorescent protein and was used as a control. A549 cells were plated in 60-mm Petri dish at a density of 2×10^6 per well for 16 to 20 hours, then were transfected with 20 μg of pCT-GFP-sur8 or pCT-GFP2 in serum-free medium for 8 hours at 37° C. in a CO2 incubator. Then, the equal amount medium with 20% fetal bovine serum (FBS) was added without removing the transfection mixture. And proceed the incubation for additional 24 hours. After transfection, the cells were subjected to cytotoxicity assay according to Example 2 and Western blot analysis according to Example 4.
# [9] = target: T7, EGFR protein kinase (Homo sapiens, UniProt P00533); assay: ADP-Glo Kinase Assay, EGFR protein kinase activity; assay type: biochemical
# T7 construct: purchased Promega
# T7 sequence (P00533 25-1210): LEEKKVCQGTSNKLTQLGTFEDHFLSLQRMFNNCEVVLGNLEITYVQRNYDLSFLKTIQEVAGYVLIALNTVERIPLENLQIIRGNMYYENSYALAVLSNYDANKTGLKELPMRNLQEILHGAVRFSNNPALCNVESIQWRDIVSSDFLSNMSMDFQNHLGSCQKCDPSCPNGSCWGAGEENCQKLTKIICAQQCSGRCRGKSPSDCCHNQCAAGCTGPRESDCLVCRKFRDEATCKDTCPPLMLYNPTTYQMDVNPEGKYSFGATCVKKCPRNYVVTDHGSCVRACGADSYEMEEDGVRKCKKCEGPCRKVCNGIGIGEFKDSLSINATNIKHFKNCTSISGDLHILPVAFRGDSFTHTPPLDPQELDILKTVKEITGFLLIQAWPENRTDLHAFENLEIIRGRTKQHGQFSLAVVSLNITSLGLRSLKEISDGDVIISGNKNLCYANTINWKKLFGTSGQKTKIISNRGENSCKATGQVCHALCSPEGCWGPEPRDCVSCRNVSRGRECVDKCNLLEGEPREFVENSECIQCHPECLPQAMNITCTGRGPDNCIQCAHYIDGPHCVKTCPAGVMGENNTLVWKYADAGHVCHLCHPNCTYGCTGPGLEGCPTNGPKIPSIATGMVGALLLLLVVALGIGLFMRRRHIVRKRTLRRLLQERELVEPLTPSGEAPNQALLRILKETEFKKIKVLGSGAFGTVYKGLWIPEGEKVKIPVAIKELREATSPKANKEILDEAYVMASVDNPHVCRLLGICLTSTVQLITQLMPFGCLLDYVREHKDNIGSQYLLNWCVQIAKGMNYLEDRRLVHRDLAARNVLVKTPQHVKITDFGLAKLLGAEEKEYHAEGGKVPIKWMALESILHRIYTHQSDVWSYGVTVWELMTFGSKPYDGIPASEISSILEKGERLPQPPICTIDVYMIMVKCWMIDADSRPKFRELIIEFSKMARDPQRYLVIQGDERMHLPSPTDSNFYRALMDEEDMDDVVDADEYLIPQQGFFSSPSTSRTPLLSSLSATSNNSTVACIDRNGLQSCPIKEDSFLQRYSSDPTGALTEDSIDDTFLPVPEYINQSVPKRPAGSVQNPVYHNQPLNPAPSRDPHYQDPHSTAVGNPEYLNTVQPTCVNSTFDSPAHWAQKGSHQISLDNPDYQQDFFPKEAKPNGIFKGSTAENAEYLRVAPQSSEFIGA
# T1 sequence (P11362 22-822): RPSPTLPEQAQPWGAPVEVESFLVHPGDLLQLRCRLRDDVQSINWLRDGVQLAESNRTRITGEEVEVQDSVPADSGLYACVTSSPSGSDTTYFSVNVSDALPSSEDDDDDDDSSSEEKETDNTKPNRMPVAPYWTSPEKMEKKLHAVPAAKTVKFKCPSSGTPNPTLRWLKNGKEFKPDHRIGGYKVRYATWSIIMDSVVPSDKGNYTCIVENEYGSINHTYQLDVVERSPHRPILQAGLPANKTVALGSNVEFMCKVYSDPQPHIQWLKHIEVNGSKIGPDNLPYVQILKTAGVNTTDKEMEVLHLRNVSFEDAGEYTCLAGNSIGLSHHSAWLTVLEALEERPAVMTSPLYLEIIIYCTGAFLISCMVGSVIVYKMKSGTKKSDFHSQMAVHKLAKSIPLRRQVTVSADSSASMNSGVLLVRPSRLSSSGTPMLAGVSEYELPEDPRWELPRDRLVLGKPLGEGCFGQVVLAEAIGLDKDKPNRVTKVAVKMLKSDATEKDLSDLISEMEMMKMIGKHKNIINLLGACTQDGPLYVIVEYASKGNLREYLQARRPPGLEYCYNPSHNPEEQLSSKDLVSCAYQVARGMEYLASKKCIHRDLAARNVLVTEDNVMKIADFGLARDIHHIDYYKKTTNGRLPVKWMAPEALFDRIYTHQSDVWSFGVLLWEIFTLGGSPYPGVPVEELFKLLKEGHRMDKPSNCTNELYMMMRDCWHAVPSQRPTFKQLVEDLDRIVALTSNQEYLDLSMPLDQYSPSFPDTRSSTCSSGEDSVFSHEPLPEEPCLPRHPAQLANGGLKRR
smiles,measurement,setting,value
"CCCCCCCCCCCCOC(=O)CCC(=O)N1CCN(CCCOc2cc3c(Nc4ccc(F)c(Cl)c4)ncnc3cc2OC)CC1 [Analogue-18, dodecyl 4-(4-(3-(4-(3-chloro-4-fluorophenylamino)-7-methoxyquinazolin-6-yloxy)propyl)piperazin-1-yl)-4-oxobutanoate]",remaining activity at 10 µM,[1],82%
same,remaining activity at 10 µM,[2],-2%
same,survivin protein expression,[3],significantly inhibited surviving protein expression
same,remaining activity at 10 µM,[4],89%
same,remaining activity at 10 µM,[5],43%
same,remaining activity at 10 µM,[6],76%
same,remaining activity at 10 µM,[7],98%
same,resistance of survivin-overexpressing cells to induced apoptosis,[8],the transfection of pCT-GFP-sur8 was more resistant to the Analogue-18-induced apoptosis than pCT-GFP2
same,pIC50,[9]; by the IVIS system,~6.89
same,pIC50,[9]; by the Luminometer,~6.90
